The target of assay [1] is T1, HCV genotype 1b (BK) NS3 modified enzyme with a R155K mutation (Hepatitis C virus genotype 1b, UniProt P26663, R1181K).
T1 construct: HCV genotype 1b (BK) NS3 modified enzyme
Nature of the assay: HCV NS3 protease time-resolved fluorescence (TRF) assay, genotype 1b R155K. As to conditions: Ki 1b R155K, genotype 1b (BK) NS3 R155K; single value. The assay is classed as biochemical. In a few lines:
(§1)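 Pre-incubation of NS3/NS4A protease with inhibitor for 10 min in pH 7.5 HEPES buffer with 10 mM DTT; 25 nM TRF peptide substrate, hydrolysis 6 h at room temperature. Fluorescence read at ex 340/em 615 nm with 400 μs delay, enzyme level set for S/B 5-20; IC50 by four-parameter fit.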

The target in assay [2] is HCV NS3 protease genotype 3a (3A-1) (Hepatitis C virus genotype 3a, UniProt Q81258). As to the kind of experiment: HCV NS3 protease time-resolved fluorescence (TRF) assay, genotype 3a. As to conditions: Ki 3a. The assay is classed as biochemical. In a few lines: as §1

Each structure is given as a SMILES string.

Consider `C=C[C@@H]1C[C@]1(NC(=O)[C@@H]1C[C@@H]2CN1C(=O)[C@H](C1CCCC1)NC(=O)O[C@@H]1CCC[C@H]1CC/C=C/Cc1c(nc3ccccc3c1OCCCN1CCNC1=O)O2)C(=O)NS(=O)(=O)C1(C)CC1` [Example 48, (3aR,7S,10S,12R,21E,24aS)-7-cyclopentyl-N-[(1R,2S)-2-ethenyl-1-{[(1-methyl-cyclopropyl)sulfonyl]carbamoyl}cyclopropyl]-5,8-dioxo-19-[3-(2-oxoimidazolidin-1-yl)propoxy]-1,2,3,3a,5,6,7,8,11,12,20,23,24,24a-tetradecahydro-10H-9,12-methanocyclopenta [18,19][1,10,3,6]dioxadiazacyclononadecino [11,12-b]quinoline-10-carboxamide], for which the Ki (in general, the equilibrium dissociation constant of an inhibitor or competing ligand from its target) worked out at 0.12 nM in assay [1] and 0.76 nM in assay [2].
In the same order, the values of `C=C[C@@H]1C[C@]1(NC(=O)[C@@H]1C[C@@H]2CN1C(=O)[C@H](C1CCCC1)NC(=O)O[C@@H]1CCC[C@H]1CC/C=C/Cc1c(nc3ccccc3c1OCCC(C)(C)O)O2)C(=O)NS(=O)(=O)C1(C)CC1` [Example 49, (3aR,7S,10S,12R,21E,24aS)-7-cyclopentyl-N-[(1R,2S)-2-ethenyl-1-{[(1-methylcyclopropyl)sulfonyl]carbamoyl}cyclopropyl]-19-(3-hydroxy-3-methylbutoxy)-5,8-dioxo-1,2,3,3a,5,6,7,8,11,12,20,23,24,24a-tetradecahydro-10H-9,12-methanocyclo penta[18,19][1,10,3,6]dioxadiazacyclo nonadecino[11,12-b]quinoline-10-carboxamide] are 0.16 nM and 1.5 nM.
`C=C[C@@H]1C[C@]1(NC(=O)[C@@H]1C[C@@H]2CN1C(=O)[C@H](C1CCCC1)NC(=O)O[C@@H]1CCC[C@H]1CC/C=C/Cc1c(nc3ccccc3c1OCCC1OCCO1)O2)C(=O)NS(=O)(=O)C1(C)CC1` [Example 50, (3aR,7S,10S,12R,21E,24aS)-7-cyclopentyl-19-[2-(1,3-dioxolan-2-yl)ethoxy]-N-[(1R,2S)-2-ethenyl-1-{[(1-methylcyclopropyl)sulfonyl]carbamoyl}cyclopropyl]-5,8-dioxo-1,2,3,3a, 5,6,7,8,11,12,20,23,24,24a-tetradeca hydro-10H-9,12-methanocyclopenta[18,19][1,10,3,6]dioxadiazacyclononadecino[11,12-b] quinoline-10-carboxamide]: the figures for the Ki in assay [1] and in assay [2] were 0.23 nM and 6.6 nM, respectively.
Take `C=C[C@@H]1C[C@]1(NC(=O)[C@@H]1C[C@@H]2CN1C(=O)[C@H](C(C)(C)C)NC(=O)O[C@@H]1CCC[C@H]1CC/C=C/Cc1c(nc3ccccc3c1OCCN1CCOCC1)O2)C(=O)NS(=O)(=O)C1CC1` [Example 51, (3aR,7S,10S,12R,21E,24aS)-7-tert-butyl-N-{(1R,2S)-1-[(cyclopropylsulfonyl)carbamoyl]-2-ethenylcyclopropyl}-19-[2-(morpholin-4-yl)ethoxy]-5,8-dioxo-1,2,3,3a,5,6,7,8,11,12, 20,23,24,24a-tetradeca hydro-10H-9,12-methanocyclopenta[18,19][1,10,3,6] dioxadiazacyclononadecino[11,12-b] quinoline-10-carboxamide]: the inhibition constant Ki in assay [1] was 0.21 nM; in assay [2] it was 1.9 nM.
`C=C[C@@H]1C[C@]1(NC(=O)[C@@H]1C[C@@H]2CN1C(=O)[C@H](C(C)(C)C)NC(=O)O[C@@H]1CCC[C@H]1CC/C=C/Cc1c(nc3ccccc3c1OCCn1cccc1)O2)C(=O)NS(=O)(=O)C1CC1` [Example 52, (3aR,7S,10S,12R,21E,24aS)-7-tert-butyl-N-{(1R,2S)-1-[(cyclopropylsulfonyl)carbamoyl]-2-ethenylcyclopropyl}-5,8-dioxo-19-[2-(1H-pyrrol-1-yl)ethoxy]-1,2,3,3a,5,6,7,8,11,12,20, 23,24,24a-tetradeca hydro-10H-9,12-methano cyclopenta[18,19][1,10,3,6]dioxadiazacyclo nonadecino[11,12-b]quinoline-10-carboxamide]: the Ki in assay [1] worked out at 1.1 nM; in assay [2], 10 nM.
With `C=C[C@@H]1C[C@]1(NC(=O)[C@@H]1C[C@@H]2CN1C(=O)[C@H](C1CCCC1)NC(=O)O[C@@H]1CCC[C@H]1CC/C=C/Cc1c(nc3ccccc3c1OCCCn1cnnc1)O2)C(=O)NS(=O)(=O)C1(C)CC1` [Example 53, (3aR,7S,10S,12R,21E,24aS)-7-cyclopentyl-N-[(1R,2S)-2-ethenyl-1-{[(1-methylcyclopropyl)sulfonyl]carbamoyl}cyclopropyl]-5,8-dioxo-19-[3-(4H-1,2,4-triazol-4-yl)propoxy]-1,2,3,3a,5,6,7,8,11,12,20,23,24,24a-tetra decahydro-10H-9,12-methanocyclopenta[18,19][1,10,3,6] dioxadiazacyclononadecino[11,12-b] quinoline-10-carboxamide], the Ki in assay [1] was 0.11 nM; in assay [2], 0.55 nM.
In the case of `C=C[C@@H]1C[C@]1(NC(=O)[C@@H]1C[C@@H]2CN1C(=O)[C@H](C1CCCC1)NC(=O)O[C@@H]1CCC[C@H]1CC/C=C/Cc1c(nc3ccccc3c1OCCCN1CCCC1)O2)C(=O)NS(=O)(=O)C1(C)CC1` [Example 54, (3aR,7S,10S,12R,21E,24aS)-7-cyclopentyl-N-[(1R,2S)-2-ethenyl-1-{[(1-methylcyclopropyl)sulfonyl]carbamoyl}cyclopropyl]-5,8-dioxo-19-[3-(pyrrolidin-1-yl)propoxy]-1,2,3,3a,5,6,7,8,11,12,20,23,24,24a-tetradecahydro-10H-9,12-methanocyclopenta[18,19][1,10,3,6] dioxadiazacyclononadecino[11,12-b] quinoline-10-carboxamide], the Ki in assay [1] amounted to 0.02 nM; in assay [2], 0.45 nM.
With `C=C[C@@H]1C[C@]1(NC(=O)[C@@H]1C[C@@H]2CN1C(=O)[C@H](C1CCCC1)NC(=O)O[C@@H]1CCC[C@H]1CC/C=C/Cc1c(nc3ccccc3c1OCCCn1cccc1)O2)C(=O)NS(=O)(=O)C1(C)CC1` [Example 55, (3aR,7S,10S,12R,21E,24aS)-7-cyclopentyl-N-[(1R,2S)-2-ethenyl-1-{[(1-methylcyclopropyl)sulfonyl]carbamoyl}cyclopropyl]-5,8-dioxo-19-[3-(1H-pyrrol-1-yl)propoxy]-1,2,3,3a,5,6,7,8,11,12,20,23,24,24a-tetradecahydro-10H-9,12-methanocyclopenta[18,19][1,10,3,6] dioxadiazacyclononadecino[11,12-b] quinoline-10-carboxamide], the figures for the Ki in assay [1] and in assay [2] were 0.22 nM and 3.9 nM, respectively.
Regarding `C=C[C@@H]1C[C@]1(NC(=O)[C@@H]1C[C@@H]2CN1C(=O)[C@H](C(C)(C)C)NC(=O)O[C@@H]1CCC[C@H]1CC/C=C/Cc1c(nc3ccccc3c1OCCCOCCOC)O2)C(=O)NS(=O)(=O)C1(C)CC1` [Example 56, (3aR,7S,10S,12R,21E,24aS)-7-tert-butyl-N-[(1R,2S)-2-ethenyl-1-{[(1-methylcyclopropyl)sulfonyl]carbamoyl}cyclopropyl]-19-[3-(2-methoxyethoxy)propoxy]-5,8-dioxo-1,2,3,3a,5,6,7,8,11,12,20,23,24,24a-tetradecahydro-10H-9,12-methanocyclopenta[18,19][1,10,3,6]dioxadiazacyclononadecino[11,12-b] quinoline-10-carboxamide], the values for the Ki in assay [1] and in assay [2] were 0.09 nM and 0.95 nM, respectively.
Turning to `C=C[C@@H]1C[C@]1(NC(=O)[C@@H]1C[C@@H]2CN1C(=O)[C@H](C1CCCC1)NC(=O)O[C@@H]1CCC[C@H]1CC/C=C/Cc1c(nc3ccccc3c1OCCCOCCOC)O2)C(=O)NS(=O)(=O)C1(C)CC1` [Example 57, (3aR,7S,10S,12R,21E,24aS)-7-cyclopentyl-N-[(1R,2S)-2-ethenyl-1-{[(1-methylcyclopropyl)sulfonyl]carbamoyl}cyclopropyl]-19-[3-(2-methoxyethoxy)propoxy]-5,8-dioxo-1,2,3,3a, 5,6,7,8,11,12,20,23,24,24a-tetradecahydro-10H-9,12-methanocyclopenta[18,19][1,10,3,6]dioxadiazacyclononadecino[11,12-b] quinoline-10-carboxamide], the Ki in assay [1] worked out at 0.11 nM; in assay [2], 2.3 nM.
`C=C[C@@H]1C[C@]1(NC(=O)[C@@H]1C[C@@H]2CN1C(=O)[C@H](C1CCCC1)NC(=O)O[C@@H]1CCC[C@H]1CC/C=C/Cc1c(nc3ccccc3c1OCCCN1CCCCC1)O2)C(=O)NS(=O)(=O)C1(C)CC1` [Example 58, (3aR,7S,10S,12R,21E,24aS)-7-cyclopentyl-N-[(1R,2S)-2-ethenyl-1-{[(1-methylcyclopropyl)sulfonyl]carbamoyl}cyclopropyl]-5,8-dioxo-19-[3-(piperidin-1-yl)propoxy]-1,2,3,3a,5,6,7,8,11,12,20,23,24,24a-tetra decahydro-10H-9,12-methanocyclopenta[18,19][1,10,3,6] dioxadiazacyclononadecino[11,12-b] quinoline-10-carboxamide]: the values for the Ki in assay [1] and in assay [2] were 0.1 nM and 0.57 nM, respectively.
Consider `C=C[C@@H]1C[C@]1(NC(=O)[C@@H]1C[C@@H]2CN1C(=O)[C@H](C(C)(C)C)NC(=O)O[C@@H]1CCC[C@H]1CC/C=C/Cc1c(nc3ccccc3c1OCCCN1CCCCC1)O2)C(=O)NS(=O)(=O)C1(C)CC1` [Example 59, (3aR,7S,10S,12R,21E,24aS)-7-tert-butyl-N-[(1R,2S)-2-ethenyl-1-{[(1-methylcyclopropyl)sulfonyl]carbamoyl}cyclopropyl]-5,8-dioxo-19-[3-(piperidin-1-yl)propoxy]-1,2,3,3a,5,6,7,8,11,12,20,23,24,24a-tetra decahydro-10H-9,12-methanocyclopenta[18,19][1,10,3,6] dioxadiazacyclononadecino[11,12-b] quinoline-10-carboxamide], for which the Ki in assay [1] came out at 0.11 nM; in assay [2], 0.45 nM.

Source of the values: patent US9328138B2 (priority 2011, dated 2016).
